# Test results as given in patent US12350249B2, “Efficient anti-bacterial hydroxy acid ester oligomer” (NANJING BIOSERICA ERA BIOLOGICAL TECHNOLOGY CO., LTD., priority 2020, dated 2025).
# What was measured:
# [1] = tested on: Escherichia coli ATCC25922; assay: Minimum Inhibitory Concentration Test (Nutrition Broth Method), Table 3; format: cell-based
# Method: (§1) Anti-bacterial tests and c log P theoretical calculation are performed on the products of the embodiment 2 and the embodiment 3, as shown in Table 3. [table]
# [2] = tested on: Escherichia coli ATCC25922; assay: Minimum inhibitory concentration MIC (agar method), Table 3; format: cell-based
# Method: as §1
# [3] = tested on: Escherichia coli ATCC 25922; assay: Anti-bacterial experiment, GB/T 20944.3-2008 shake flask method; format: cell-based
# Method: Adding 10 g of 3-hydroxybutyrate ethyl ester and 0.01 g of zinc acetate (i.e. a mass ratio of 3-hydroxybutyrate ethyl ester is 0.1%) in a three-necked flask with mechanical stirring, a thermometer and a distillation device, wherein a stirring speed is approximately 150 revolutions; under an environment with a trace of nitrogen, increasing a temperature to 150° C. with a speed of 0.5-3° C./min to react for 1 hour, then stopping reaction to obtain a 3-HB oligomer; detecting a degree of polymerization by a mass spectrometry, wherein an anti-bacterial experiment refers to GB/T 20944.3-2008 Textiles-Evaluation for anti-bacterial activity-Part 3: Shake flask method, a strain used is Escherichia coli ATCC 25922.
# S. aureus = conditions: disclosed in CN110452115A; cited from earlier work
# K. pneumoniae = conditions: disclosed in CN110452115A; cited from earlier work
# C. albicans = conditions: disclosed in CN110452115A; cited from earlier work
Compound,MIC [1] [µg/mL],Minimum inhibitory concentration MIC (agar method) [2] [%],other results
"COC(=O)C[C@@H](C)O [Embodiment 2-1, R-(−)-3-hydroxybutyric methyl ester]",62.5,10,–
"CCOC(=O)C[C@@H](C)O [Embodiment 2-2, R-(−)-3-hydroxybutyrate ethyl ester]",31.2,5,–
"CCCOC(=O)C[C@@H](C)O [Embodiment 2-3, R-(−)-3-hydroxybutyrate propyl ester]",15.6,2,–
"CCCCOC(=O)C[C@@H](C)O [Embodiment 2-4, R-(−)-3-hydroxybutyrate butyl ester]",7.81,1,–
"CCCCCOC(=O)C[C@@H](C)O [Embodiment 2-5, R-(−)-3-hydroxybutyrate pentyl ester]",3.91,0.5,–
"CCCCCCOC(=O)C[C@@H](C)O [Embodiment 2-6, R-(−)-3-hydroxybutyrate hexyl ester]",1.95,0.25,–
"CCCCCCCOC(=O)C[C@@H](C)O [Embodiment 2-7, R-(−)-3-hydroxybutyrate heptyl ester]",31.2,>15,–
"CCCCCCCCOC(=O)C[C@@H](C)O [Embodiment 2-8, R-(−)-3-hydroxybutyrate octyl ester]",31.2,>20,–
"CCCCCCOC(=O)[C@@H](C)O [Embodiment 3-1, R-(−)-lactate hexyl ester]",1.95,0.25,–
"CCOC(=O)[C@@H](C)O [Embodiment 3-2, R-(−)-lactate ethyl ester]",35.5,5.25,–
"CCCCCCCOC(=O)[C@@H](C)O [Embodiment 3-3, R-(−)-lactate heptyl ester]",28.6,4.38,–
R-(−)-3-hydroxybutyrate ethyl ester oligomer [Embodiment 1-3],–,–,Anti-bacterial rate (%) [3]: 99%
poly-3-hydroxybutyrate oligomer,–,–,minimum inhibitory concentration (MIC) (S. aureus): 6250 µg/mL; minimum inhibitory concentration (MIC) (K. pneumoniae): 12500 µg/mL; minimum inhibitory concentration (MIC) (C. albicans): 25000 µg/mL
